{"source": "patent US20100203123A1", "about": "“METHODS FOR IMPROVING COGNITIVE FUNCTION AND DECREASING HEART RATE” (MARTEK BIOSCIENCES CORPORATION, priority 2009, published 2010)", "type_in_all_cases": "in vivo, human", "key": {"[1]": {"tested_on": "healthy elderly subjects with a mild memory complaint", "experiment": "CANTAB Paired Associate Learning (PAL) test, randomized double-blind placebo-controlled 24 week study", "procedure": "(§1) The effects of DHA (about 900 mg/day) versus placebo was tested to determine whether cognitive measures of memory, attention, and executive function were improved, utilizing the Cambridge Neuropsychological Test Automated Battery (CANTAB) cognitive battery, in healthy elderly subjects with a mild memory complaint. One objective of the study was to determine the effect of DHA administration versus placebo on improving cognitive functions (i.e., working memory, memory retention, attention, processing speed, and executive function) in healthy elderly with a subjective memory complaint. Another objective of the study included determining the effects of DHA on visual acuity, levels of plasma phospholipids, and evaluating the safety and tolerability of the DHA dose administered.\nThe study was a randomized, double-blind, placebo-controlled, parallel, multi-center design study to evaluate the effects of an oral dose of DHA on cognitive functions in healthy elderly with a subjective memory complaint. The study consisted of a screening/baseline period, and a 24 week treatment period.\n(§2) The DHA group was provided 800 mg soft-gelatin capsules, each containing about 300 mg DHA as a triglyceride from algal oil (DHASCO®-S oil, 40% DHA). In addition to 40% DHA, DHASCO®-S oil was formulated to contain 40-60% saturated, mono- and polyunsaturated fatty acids, 400 ppm ascorbyl palmitate, 2000 ppm mixed tocopherols, 2000 ppm rosemary extract, 3% orange-flavoring, and 1% natural masking agent. Subjects were instructed to take three 800 mg capsules/day, i.e., about 900 mg DHA/day.\nPre-baseline testing with the CANTAB occurred to serve as a training session and to familiarize the subject with the computer system. Morris R, et al., Computer Aided Assessment of Dementia: Comparative Studies of Neuropsychological Deficits in Alzheimer Type Dementia and Parkinson's Disease (1987). Seven (+/−2) days following this pre-baseline testing, baseline measurements were taken, including baseline laboratory measures, vital signs, and the CANTAB cognitive battery. At the baseline session, subjects were stratified based on age (55-69; ≧70) and randomly assigned to receive about 900 mg DHA, or placebo. Capsules, either DHA or placebo, as randomly assigned, was given to each subject at the end of the baseline visit. Subjects were instructed to take 3 capsules everyday for the ensuing 24 weeks and were supplied initially with 3 months' worth of capsules. At the end of 4 weeks, subjects returned to the site for compliance and safety assessments. Subjects returned to the site at 12 weeks for safety and efficacy assessments and were re-supplied with the final 3 months' worth of capsules. Subjects returned to the site at 24 weeks for the “end of study” efficacy and safety assessments. Compliance was assessed by food frequency questionnaires, returned capsule counts, and by plasma DHA levels (taken at 24 weeks). The CANTAB cognitive battery consists of tests of memory, learning, attention, problem-solving, and executive function (i.e., planning and organizational skills). See e.g., Fowler et al., Applied Neuropsychology 2:72-78 (1995); Robbins et al., Dementia 5:266-281 (1994); and De Luca et al., J Clinical and Experimental Neuropsychology 25:242-254 (2003).\nA primary efficacy endpoint of the CANTAB test score on the Paired Associate Learning (PAL) test at 24 weeks of treatment was used as the primary efficacy outcome. The primary analysis was adjusted for baseline scores, education, site, and the stratification factor of age. Secondary analyses were based on the model above with the addition of the factor, concomitant statin medication use. The PAL subtest of the CANTAB is a test of visuospatial cued recall memory that detects changes in episodic memory. See e.g., de Jager et al., Psychological Medicine 32:483-491 (2002). […]"}, "[2]": {"tested_on": "healthy elderly subjects with a mild memory complaint", "experiment": "CANTAB Verbal Recognition Memory (VRM) test", "procedure": "as §1, §2\n(§3) The secondary efficacy endpoints included: • CANTAB tests of executive function and planning: Spatial Working Memory […] and Stockings of Cambridge (SOC) • CANTAB Verbal Recognition Memory test (VRM) • CANTAB Pattern Recognition test (PRM) • Visual acuity (measured by Snellen Eye chart; corrected vision) • Memory Functioning Questionnaire: Frequency of Forgetting-10 (Self-rating scale) • Activities of Daily Living (ADCS-ADL PI) scale (Self-rating) • Clinical measures of cognitive function and computerized assessments were administered by (CANTAB) certified examiners at each site blinded to the subject's treatment. • Description of CANTAB Battery of tests\nAdditional tests are included in CANTABeclipse and are available in the CANTABelect batteries. […]"}, "[3]": {"tested_on": "healthy elderly subjects with a mild memory complaint", "experiment": "CANTAB Pattern Recognition Memory (PRM) test", "conditions": "about 900 mg/d, 24 weeks", "procedure": "as §1, with “Another objective of the study included determining the effects of DHA on visual acuity, levels of plasma phospholipids, and evaluating the safety and tolerability of the DHA dose administered.” left out\nas §3, with “of tests […]” for “of tests”"}, "[4]": {"tested_on": "healthy elderly subjects with a mild memory complaint", "experiment": "CANTAB Spatial Working Memory (SWM) test", "conditions": "about 900 mg/d, 24 weeks", "procedure": "as §1, with “Another objective of the study included determining the effects of DHA on visual acuity, levels of plasma phospholipids, and evaluating the safety and tolerability of the DHA dose administered.” left out\nas §3, with “of tests […]” for “of tests”"}, "[5]": {"tested_on": "healthy elderly subjects with a mild memory complaint", "experiment": "CANTAB Stockings of Cambridge (SOC) test", "conditions": "about 900 mg/d, 24 weeks", "procedure": "as §1, with “Another objective of the study included determining the effects of DHA on visual acuity, levels of plasma phospholipids, and evaluating the safety and tolerability of the DHA dose administered.” left out\nas §3, with “of tests […]” for “of tests”"}, "[6]": {"experiment": "Vital signs (heart rate, blood pressure, body weight)", "conditions": "about 900 mg/d, 24 weeks", "procedure": "as §1, §2\n(§4) Pre-baseline testing with the CANTAB occurred to serve as a training session and to familiarize the subject with the computer system. Morris R, et al., Computer Aided Assessment of Dementia: Comparative Studies of Neuropsychological Deficits in Alzheimer Type Dementia and Parkinson's Disease (1987). Seven (+/−2) days following this pre-baseline testing, baseline measurements were taken, including baseline laboratory measures, vital signs, and the CANTAB cognitive battery. At the baseline session, subjects were stratified based on age (55-69; ≧70) and randomly assigned to receive about 900 mg DHA, or placebo. […] Compliance was assessed by food frequency questionnaires, returned capsule counts, and by plasma DHA levels (taken at 24 weeks). […]"}, "[7]": {"experiment": "Plasma phospholipid fatty acid levels", "procedure": "as §2\nBlood samples of the subjects were collected at baseline and at the week 24 or “end of study” visit to determine phospholipid levels. Samples were collected into 10 ml vacutainer EDTA tubes, centrifuged at 3000 rpm and plasma was stored at −80° C. until analyzed. Plasma phospholipid fatty acids were analyzed as described previously. See, e.g., Arterburn, L. M., et al., Lipids 42:1011-1024 (2007). The fatty acid profiles were expressed as a percent of the total […] of fatty acid (weight percent)."}, "[8]": {"tested_on": "healthy elderly subjects with a mild memory complaint", "experiment": "Safety and tolerability of the DHA dose", "procedure": "as §1\nas §4, with “battery.” for “battery. At the baseline session, subjects were stratified based on age (55-69; ≧70) and randomly assigned to receive about 900 mg DHA, or placebo.”"}, "[9]": {"tested_on": "healthy elderly subjects with a mild memory complaint", "experiment": "Mini-Mental State Examination (MMSE)", "conditions": "6 month study, not different between groups", "source_text": "(§5) During the Screening Period, subjects were selected on the basis of specific inclusion and exclusion criteria, including a screening Logical Memory sub-test of the Wechsler Memory Scale (WMS III). See e.g., Wechsler, D., Administration and Scoring Manual, 3rd ed. San Antonio, Tex.: Harcourt Brace & Company, 1997. In addition to the Logical Memory sub-test, the Mini-Mental State Examination (MMSE), Geriatric Depression scale, and a test of visual acuity and a DHA Food Frequency Questionnaire were administered to all subjects at screening. See e.g., Folstein et al., Pyschiatr. Res. 12:189-198 (1975); Yesavage J., et al., J Psychiatr. Res. […] (1982). Eligible subjects who meet the screening criteria were given a pre-baseline training session with the computerized cognitive battery, CANTAB.\n(§6) Other secondary measures included self-assessment tests of memory (Frequency of Forgetting-10 scale) (Zelinski, E. M. et al., Aging and Mental Health […]), Alzheimer's Disease Cooperative Study-Activities of Daily Living Prevention Instrument (ADCS-ADL PI scale) (Galasko, D., Alzheimer Dis. Assoc. Disord. 20:S152-69 (200)), Mini-Mental State Examination (MMSE) (Folstein et al., Pyschiatr. Res. 12:189-198 (1975) and the Geriatric Depression Scale (Yesavage, J., et al., J Psychiatr. Res. […])."}, "[10]": {"tested_on": "healthy elderly subjects with a mild memory complaint", "experiment": "Geriatric Depression Scale", "conditions": "6 month study, not different between groups", "source_text": "as §5, §6"}, "[11]": {"tested_on": "healthy elderly subjects with a mild memory complaint", "experiment": "ADL (ADCS-ADL PI) and self-assessment of memory (Frequency of Forgetting-10)", "conditions": "6 month study", "source_text": "as §3, §6"}}, "note": "“Also recorded” adds a separate entry of the source."}
{"molecule": "CC/C=C\\C/C=C\\C/C=C\\C/C=C\\C/C=C\\C/C=C\\CCC(=O)O", "note": "[DHA, (all-Z)-4,7,10,13,16,19-docosahexaenoic acid]", "values": [{"measurement": "errors made on the PAL 6 pattern stage test, diff. score versus placebo, change from baseline", "setting": "[1]; about 900 mg/d DHA, six months, ITT analysis, p<0.03", "result": "−1.63±0.76"}, {"measurement": "PAL primary endpoint, diff. score versus placebo, compliers analysis", "setting": "[1]; about 900 mg/d, week 24, 95% CI −3.1, 0.4, p<0.13, not significant", "result": "−1.3±0.89"}, {"measurement": "improvement in PAL test performance compared to age-associated normative data", "setting": "[1]; about 900 mg/day, 6 months, placebo 3.6 year", "result": 7, "unit": "year"}, {"measurement": "reduction in CANTAB PAL 6 pattern errors compared to the decrease with placebo", "setting": "[1]; about 900 mg/day, six months", "result": "~2", "unit": "fold"}, {"measurement": "mean PAL errors after 6 months of DHA supplementation", "setting": "[1]; baseline 13.4±11.5", "result": "8.8±9.9"}, {"measurement": "normative age corresponding to mean PAL errors after 6 months", "setting": "[1]; baseline 72.6 years", "result": "65.6 years of age"}, {"measurement": "VRM delayed recognition, change from baseline correct responses, diff. versus placebo", "setting": "[2]; about 900 mg/d, p<0.02", "result": "0.4±0.18"}, {"measurement": "VRM immediate recognition, change from baseline correct responses, diff. versus placebo", "setting": "[2]; about 900 mg/d, p<0.02", "result": "0.4±0.17"}, {"measurement": "CANTAB Verbal recognition memory, effect of DHA supplementation", "setting": "[2]; about 900 mg/day, 6 months", "result": "modestly improved"}, {"measurement": "CANTAB Pattern Recognition test responses, DHA versus placebo", "setting": "[3]", "result": "not significantly different"}, {"measurement": "Spatial Working Memory (SWM) test responses, DHA versus placebo", "setting": "[4]", "result": "not significantly different; also recorded: not found"}, {"measurement": "changes in executive function (SOC)", "setting": "[5]", "result": "not found"}, {"measurement": "blood pressure, DHA versus placebo", "setting": "[6]", "result": "remained unchanged"}, {"measurement": "body weight, DHA versus placebo", "setting": "[6]", "result": "remained unchanged"}, {"measurement": "heart rate, change from baseline", "setting": "[6]; placebo −1 BPM, p<0.03", "result": "−3.2", "unit": "BPM"}, {"measurement": "plasma phospholipid DHA change, diff. score versus placebo", "setting": "[7]; 24 weeks, p<0.001", "result": "3.15±0.16"}, {"measurement": "plasma phospholipid DPAn-6, mean change", "setting": "[7]; 24 weeks, placebo −0.004, p<0.001", "result": 0.37, "unit": "weight %"}, {"measurement": "plasma phospholipid EPA, mean change", "setting": "[7]; 24 weeks, placebo −0.06, p<0.001", "result": 0.16, "unit": "weight %"}, {"measurement": "plasma phospholipid arachidonic acid (ARA), mean change from baseline", "setting": "[7]; 24 weeks, placebo −0.12, p<0.001", "result": "−1.37", "unit": "weight %"}, {"measurement": "plasma phospholipid ARA levels, decrease", "setting": "[7]; about 900 mg/day, six months", "result": 1.4, "unit": "weight %"}, {"measurement": "plasma phospholipid DHA, increase from baseline", "setting": "[7]; week 24, about 900 mg/day, placebo −0.08", "result": 3.2, "unit": "weight %"}, {"measurement": "plasma phospholipid DHA level after treatment", "setting": "[7]; week 24, baseline 3.2 weight %, p<0.001", "result": 6.4, "unit": "weight %"}, {"measurement": "treatment-related SAEs", "setting": "[8]; about 900 mg/d, 24 weeks", "result": "no treatment-related SAEs were reported"}, {"measurement": "tolerability", "setting": "[8]; about 900 mg/day algal DHA, six months", "result": "well tolerated"}, {"measurement": "MMSE, global cognitive function", "setting": "[9]", "result": "unchanged"}, {"measurement": "Geriatric Depression scale", "setting": "[10]", "result": "unchanged"}, {"measurement": "ADL assessment", "setting": "[11]", "result": "unaffected by DHA supplementation"}, {"measurement": "self-perceptive memory assessment", "setting": "[11]", "result": "unaffected by DHA supplementation"}]}
